Test results published in patent US4853467A, “Nitrogen containing derivatives of epipodophyllotoxin glucosides” (Bristol-Myers Company, priority 1987, dated 1989).
Converted amounts (≈) assume the structure as drawn. Counter-ions that a name gives are not always drawn.

Legend:
[1] = test system: B16-F10 murine melanoma; experiment: In vitro cytotoxicity assay, B16-F10 murine melanoma; assay type: cell-based; settings: two values per compound, four-fold serial dilution; for In vitro cytotoxicity IC50, B-16-F10: B16-F10 murine melanoma; for IC50: Mus musculus, B16-F10, B16-F10 murine melanoma, read-out: In vitro cytotoxicity IC50, B-16-F10
Experimental: (§1) The in vitro cytotoxicity assay involved growing various mammalian tumor cells, including human tumor cells, on microtitre plates employing established tissue culture methods. The concentration of each compound required to inhibit cell growth by 50% (IC50) was then determined by a four-fold serial dilution technique. The validity of the method has been supported by a report published in the "Proceedings of the American Association for Cancer Research", 1984, 25:1891 (Abst. No. 328). Tumor cells of the following types were employed for each compound tested: B16-F10 murine melanoma; Moser human colon; SW900 human lung and three human colon tumor cell lines namely HCT-116, HCT-VM, and HCT-VP, the latter two being resistant to teniposide (VM) and etoposide (VP), respectively. IC50 values less than 500 μg/ml are a positive indicator of antitumor activity. Table II presents IC50 values of various compounds of the present invention against the aforementioned cell lines.

[2] = test system: HCT/VM34; experiment: In vitro cytotoxicity assay, HCT/VM34 teniposide-resistant human colon tumor; assay type: cell-based; settings: HCT/VM34, resistant to teniposide, two values per compound, four-fold serial dilution; for IC50: Homo sapiens
Experimental: as §1

[3] = test system: SW900 human lung; experiment: In vitro cytotoxicity assay, SW900 human lung; assay type: cell-based; settings: two values per compound, four-fold serial dilution; for IC50: Homo sapiens, SW900, SW900 human lung; for In vitro cytotoxicity IC50, SW900: SW900 human lung
Experimental: as §1

[4] = test system: Moser human colon; experiment: In vitro cytotoxicity assay, Moser human colon; assay type: cell-based; settings: two values per compound, four-fold serial dilution; for IC50: Homo sapiens
Experimental: as §1

[5] = test system: P388 murine leukemia; experiment: P388 Leukemia, antitumor activity against murine P388 leukemia; assay type: in vivo, murine (female CDF1 mice); settings: i.p. on days 5 and 8; 10^6 P388 cells i.p.; maximum effect over doses; >=125 considered significant; etoposide values in parentheses are positive control in same experiment
Experimental: Female CDF1 mice were implanted intraperitoneally with a tumor inoculum of 10^6 ascites cells of P388 murine leukemia and treated with various doses of a test compound; four mice were used for each dose level and ten were used as saline-treated control. The compounds were administered by intraperitoneal injection on days 5 and 8 (day 1 being the day of tumor implantation). Antitumor activity was expressed as % T/C which is the ratio of the median survival time (MST) of drug-treated group to the MST of saline-treated control group. A compound showing a % T/C value of 125 or greater is generally considered to have significant antitumor activity in the P388 test. The experiment lasted 31 days at the end of which time the number of survivors was noted. Table I presents the results of the above-described evaluation; only the maximum % T/C and the dose showing the maximum effect are reported.

[6] = test system: HCT-116; experiment: In vitro cytotoxicity assay, HCT-116 human colon tumor; assay type: cell-based; settings: two values per compound, four-fold serial dilution; for In vitro cytotoxicity IC50, HCT-116: HCT-116 human colon; for IC50: Homo sapiens, HCT-116, HCT-116 human colon
Experimental: as §1

[7] = test system: HCT/VP35; experiment: In vitro cytotoxicity assay, HCT/VP35 etoposide-resistant human colon tumor; assay type: cell-based; settings: two values per compound, four-fold serial dilution; for In vitro cytotoxicity IC50, HCT/VP35: HCT/VP35, resistant to etoposide; for IC50: Homo sapiens, HCT/VP35, HCT/VP35, resistant to etoposide
Experimental: as §1

| Compound | In vitro cytotoxicity IC50, B-16-F10 [1] | IC50 [1] | In vitro cytotoxicity IC50, HCT/VM34 [2] | IC50 [2] | IC50 [3] | In vitro cytotoxicity IC50, SW900 [3] | IC50 [4] | In vitro cytotoxicity IC50, MOSER [4] | Max % T/C (ratio of median survival time of drug-treated group to saline-treated control group) [5] | In vitro cytotoxicity IC50, HCT-116 [6] | IC50 [6] | In vitro cytotoxicity IC50, HCT/VP35 [7] | IC50 [7] |
| --- | --- | --- | --- | --- | --- | --- | --- | --- | --- | --- | --- | --- | --- |
| COc1cc([C@@H]2c3cc4c(cc3[C@@H](O[C@@H]3O[C@@H]5CO[C@@H](C)O[C@H]5[C@H](O)[C@H]3O)[C@H]3COC(=O)[C@H]23)OCO4)cc([N+](=O)[O-])c1O [Example 24, 3'-Desmethoxy-3'-nitro etoposide] | 50 µg/mL | 41 µg/mL (≈ 67.9 µM) | 82 µg/mL | 56 µg/mL (≈ 92.8 µM) | 66 µg/mL (≈ 109 µM) | 90 µg/mL | 92 µg/mL (≈ 152 µM) | 84 µg/mL | > 140% | 53 µg/mL | 43 µg/mL (≈ 71.2 µM) |  |  |
| COc1cc([C@@H]2c3cc4c(cc3[C@@H](O[C@@H]3O[C@@H]5CO[C@@H](C)O[C@H]5[C@H](O)[C@H]3O)[C@H]3COC(=O)[C@H]23)OCO4)cc(N=Cc2ccco2)c1O [Example 18, 3'-Desmethoxy-3'-[(2-furyl)methylene]amino etoposide] | 15.3 µg/mL | 12.5 µg/mL (≈ 19.2 µM) |  |  | 42 µg/mL (≈ 64.5 µM) | 40 µg/mL | 40 µg/mL (≈ 61.4 µM) | 37 µg/mL | 200% | 18.4 µg/mL | 29 µg/mL (≈ 44.5 µM) |  |  |
| COc1ccc(C=Nc2cc([C@@H]3c4cc5c(cc4[C@@H](O[C@@H]4O[C@@H]6CO[C@@H](C)O[C@H]6[C@H](O)[C@H]4O)[C@H]4COC(=O)[C@H]34)OCO5)cc(OC)c2O)cc1 [Example 20, 3'-Desmethoxy-3'-[[(4-methoxy)phenyl]methylene]amino etoposide] | 19.8 µg/mL | 13.3 µg/mL (≈ 19.2 µM) |  |  |  |  |  |  | 175% | 5.6 µg/mL | 9.6 µg/mL (≈ 13.9 µM) | 61 µg/mL | 35 µg/mL (≈ 50.6 µM) |
| COc1cc([C@@H]2c3cc4c(cc3[C@@H](O[C@@H]3O[C@@H]5CO[C@@H](C)O[C@H]5[C@H](O)[C@H]3O)[C@H]3COC(=O)[C@H]23)OCO4)cc([N+]#N)c1[O-] [Example 25, 3'-Desmethoxy-3'-diazonium etoposide hydroxide inner salt] | 25 µg/mL | 29 µg/mL | 43 µg/mL | 38 µg/mL |  |  |  |  | 240% | 38 µg/mL | 24 µg/mL | 102 µg/mL | 78 µg/mL |
| COc1cc([C@@H]2c3cc4c(cc3[C@@H](O[C@@H]3O[C@@H]5CO[C@@H](C)O[C@H]5[C@H](O)[C@H]3O)[C@H]3COC(=O)[C@H]23)OCO4)cc(NC(C)=O)c1O [Example 7, 3'-Acetylamino-3'-desmethoxy etoposide] | 63 µg/mL | 54 µg/mL (≈ 87.7 µM) | 65 µg/mL | 63 µg/mL (≈ 102 µM) |  |  |  |  | 135% | 63 µg/mL | 60 µg/mL (≈ 97.5 µM) | 83 µg/mL | 90 µg/mL (≈ 146 µM) |
| COC1=CC([C@@H]2c3cc4c(cc3[C@@H](O[C@@H]3O[C@@H]5CO[C@@H](C)O[C@H]5[C@H](O)[C@H]3O)[C@H]3COC(=O)[C@@H]32)OCO4)=CC(=NOCc2ccccc2)C1=O [Example 2, Etoposide-ortho-quinone-3'-O-benzyloxime] |  |  |  |  |  |  |  |  | 242% |  |  |  |  |
| COc1cc([C@@H]2c3cc4c(cc3[C@@H](O[C@@H]3O[C@@H]5CO[C@@H](C)O[C@H]5[C@H](O)[C@H]3O)[C@H]3COC(=O)[C@H]23)OCO4)cc2ncoc12 [Example 27, Etoposide benzoxazole derivative] | 4.3 µg/mL | 5.3 µg/mL (≈ 9.08 µM) | 10.6 µg/mL | 14 µg/mL (≈ 24 µM) |  |  | 25 µg/mL (≈ 42.8 µM) | 27 µg/mL | 165% |  |  | 15.6 µg/mL | 26 µg/mL (≈ 44.6 µM) |
| CON=C1C=C([C@@H]2c3cc4c(cc3[C@@H](O[C@@H]3O[C@@H]5CO[C@@H](C)O[C@H]5[C@H](O)[C@H]3O)[C@H]3COC(=O)[C@@H]32)OCO4)C=C(OC)C1=O [Example 1, Etoposide-ortho-quinone-3'-O-methyloxime] |  |  |  |  |  |  |  |  | 200% |  |  |  |  |
| CC(=O)NC1=CC([C@@H]2c3cc4c(cc3[C@@H](O[C@@H]3O[C@@H]5CO[C@@H](C)O[C@H]5[C@H](O)[C@H]3O)[C@H]3COC(=O)[C@@H]32)OCO4)=CC(=O)C1=O [Example 28, 5'-Desmethoxy-5'-acetylamino etoposide 3',4'-orthoquinone] | 81 µg/mL | 72 µg/mL (≈ 120 µM) | 64 µg/mL | 58 µg/mL (≈ 96.7 µM) |  |  | 87 µg/mL (≈ 145 µM) | 71 µg/mL | 125% | 68 µg/mL | 66 µg/mL (≈ 110 µM) | 70 µg/mL | 84 µg/mL (≈ 140 µM) |
| COc1cc([C@@H]2c3cc4c(cc3[C@@H](O[C@@H]3O[C@@H]5CO[C@@H](C)O[C@H]5[C@H](O)[C@H]3O)[C@H]3COC(=O)[C@H]23)OCO4)cc(NS(C)(=O)=O)c1O [Example 12, 3'-Desmethoxy-3'-methanesulfonamido etoposide] | 54 µg/mL | 61 µg/mL (≈ 93.6 µM) |  |  | > 188 µg/mL |  |  |  | 150% | 62 µg/mL | 54 µg/mL (≈ 82.9 µM) | 132 µg/mL | 88 µg/mL (≈ 135 µM) |
| COc1cc([C@@H]2c3cc4c(cc3[C@@H](O[C@@H]3O[C@@H]5CO[C@@H](C)O[C@H]5[C@H](O)[C@H]3O)[C@H]3COC(=O)[C@H]23)OCO4)cc(N)c1O [Example 3, 3'-Amino-3'-desmethoxy etoposide] |  |  |  |  |  |  |  |  | 228% |  |  |  |  |
| COc1cc([C@@H]2c3cc4c(cc3[C@@H](O[C@@H]3O[C@@H]5CO[C@@H](C)O[C@H]5[C@H](O)[C@H]3O)[C@H]3COC(=O)[C@H]23)OCO4)cc(N=Cc2cc(OC)c(OC)c(OC)c2)c1O [Example 21, 3'-Desmethoxy-3'-[[(3,4,5-trimethoxy)phenyl]methylene]amino etoposide] | 4.3 µg/mL | 5.3 µg/mL (≈ 7.05 µM) | 10.6 µg/mL | 14 µg/mL (≈ 18.6 µM) |  |  | 25 µg/mL (≈ 33.3 µM) | 27 µg/mL | 225% |  |  | 15.6 µg/mL | 26 µg/mL (≈ 34.6 µM) |
| COc1cc([C@@H]2c3cc4c(cc3[C@@H](O[C@@H]3O[C@@H]5CO[C@@H](C)O[C@H]5[C@H](O)[C@H]3O)[C@H]3COC(=O)[C@H]23)OCO4)cc(N=Cc2ccncc2)c1O [Example 19, 3'-Desmethoxy-3'-[(4-pyridyl)methylene]amino etoposide] | 16.4 µg/mL | 16.9 µg/mL (≈ 25.5 µM) | 19.3 µg/mL | 21 µg/mL (≈ 31.7 µM) | 42 µg/mL (≈ 63.4 µM) | 28 µg/mL | 38 µg/mL (≈ 57.3 µM) | 32 µg/mL | 230% | 12.7 µg/mL | 13.9 µg/mL (≈ 21 µM) |  |  |
| COc1cc([C@@H]2c3cc4c(cc3[C@@H](O[C@@H]3O[C@@H]5CO[C@@H](C)O[C@H]5[C@H](O)[C@H]3O)[C@H]3COC(=O)[C@H]23)OCO4)cc(NC(=O)NCCCl)c1O [Example 10, 3'-[(2-Chloroethylamino)carbonyl]amino-3'-desmethoxy etoposide] | 87 µg/mL | 57 µg/mL (≈ 83.9 µM) | 100 µg/mL | 81 µg/mL (≈ 119 µM) |  |  |  |  | 110% | 78 µg/mL | 71 µg/mL (≈ 105 µM) | 106 µg/mL | 92 µg/mL (≈ 135 µM) |
